Measurements published in PubChem BioAssay (NCI).
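Exposure lasted 48 hours, with cells grown in 96-well plates and compounds tested at five concentrations. The concentration for 50% growth inhibition is given as GI50. TGI: concentration producing complete growth inhibition.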

Assays:
Experiment in all cases: NCI anticancer screen, dose series, 48 h
[1] = system: 786-0 renal
[2] = system: A498 renal
[3] = system: A549 NSCLC
[4] = system: ACHN renal
[5] = system: BT-549 breast
[6] = system: CAKI-1 renal
[7] = system: CCRF-CEM leukemia
[8] = system: COLO 205 colon
[9] = system: DU-145 prostate
[10] = system: HCC-2998 colon
[11] = system: HCT-116 colon
[12] = system: HCT-15 colon
[13] = system: HL-60(TB) leukemia
[14] = system: HOP-62 NSCLC
[15] = system: HS 578T breast
[16] = system: HT29 colon
[17] = system: IGROV1 ovarian
[18] = system: K-562 leukemia
[19] = system: KM12 colon
[20] = system: M14 melanoma
[21] = system: MALME-3M melanoma
[22] = system: MCF7 breast
[23] = system: MDA-MB-231 breast
[24] = system: MDA-MB-435
[25] = system: MOLT-4 leukemia
[26] = system: NCI-H226 lung
[27] = system: NCI-H23 lung
[28] = system: NCI-H460 lung
[29] = system: NCI-H522 lung
[30] = system: NCI/ADR-RES ovarian
[31] = system: OVCAR-3 ovarian
[32] = system: OVCAR-4 ovarian
[33] = system: OVCAR-5 ovarian
[34] = system: OVCAR-8 ovarian
[35] = system: PC-3 prostate
[36] = system: RPMI-8226 leukemia
[37] = system: SF-268 CNS
[38] = system: SF-295 CNS
[39] = system: SK-MEL-28 melanoma
[40] = system: SK-MEL-5 melanoma
[41] = system: SK-OV-3 ovarian
[42] = system: SN12C renal
[43] = system: SNB-19 CNS
[44] = system: SNB-75 CNS
[45] = system: SR leukemia
[46] = system: SW-620 colon
[47] = system: T-47D breast
[48] = system: TK-10 renal
[49] = system: UACC-257 melanoma
[50] = system: UACC-62 melanoma
[51] = system: UO-31 renal
[52] = system: HOP-92 NSCLC
[53] = system: LOX IMVI melanoma
[54] = system: RXF 393 renal
[55] = system: SF-539 CNS
[56] = system: SK-MEL-2 melanoma
[57] = system: U251 CNS

With `Oc1ccc(Cl)cc1-c1cc(-c2ccccc2Cl)[nH]n1` the GI50 [1] was greater than 100 µM, the TGI [1] was greater than 100 µM and the GI50 [2] was 95.7 µM. For the same molecule, the TGI [2] was greater than 100 µM, the GI50 [3] was 4.74 µM and the TGI [3] was greater than 100 µM. The GI50 [4] was 8.17 µM, the TGI [4] was greater than 100 µM and the GI50 [5] was 36 µM. The TGI [5] was greater than 100 µM, the GI50 [6] was 2.87 µM and the TGI [6] was greater than 100 µM. For the same molecule, the GI50 [7] was 2.71 µM, the TGI [7] was greater than 100 µM and the GI50 [8] was 27.3 µM. It also gave a TGI [8] greater than 100 µM, a GI50 [9] of 8.05 µM and a TGI [9] greater than 100 µM. The GI50 [10] was 2.86 µM, the TGI [10] was 17.4 µM and the GI50 [11] was 4.6 µM. For the same molecule, the TGI [11] was greater than 100 µM, the GI50 [12] was 0.488 µM and the TGI [12] was greater than 100 µM. It also gave a GI50 [13] of 4.22 µM, a TGI [13] greater than 100 µM and a GI50 [14] of 19.3 µM. The TGI [14] was greater than 100 µM, the GI50 [15] was 7.85 µM and the TGI [15] was greater than 100 µM. The GI50 [16] was 15.2 µM, the TGI [16] was greater than 100 µM and the GI50 [17] was 1.66 µM. It also gave a TGI [17] greater than 100 µM, a GI50 [18] of 4.59 µM and a TGI [18] greater than 100 µM. The GI50 [19] was 2.41 µM, the TGI [19] was greater than 100 µM and the GI50 [20] was 25.9 µM. For the same molecule, the TGI [20] was greater than 100 µM, the GI50 [21] was 9.76 µM and the TGI [21] was greater than 100 µM. For the same molecule, the GI50 [22] was 0.362 µM, the TGI [22] was greater than 100 µM and the GI50 [23] was 1.44 µM. The TGI [23] was 6.29 µM, the GI50 [24] was 8.44 µM and the TGI [24] was greater than 100 µM. It also gave a GI50 [25] of 5.38 µM, a TGI [25] greater than 100 µM and a GI50 [26] of 13.8 µM. For the same molecule, the TGI [26] was greater than 100 µM, the GI50 [27] was 4.91 µM and the TGI [27] was greater than 100 µM. It also gave a GI50 [28] of 3.47 µM, a TGI [28] greater than 100 µM and a GI50 [29] of 3.26 µM. It also gave a TGI [29] greater than 100 µM, a GI50 [30] of 8.55 µM and a TGI [30] greater than 100 µM. The GI50 [31] was 2.37 µM, the TGI [31] was greater than 100 µM and the GI50 [32] was 0.28 µM. For the same molecule, the TGI [32] was greater than 100 µM, the GI50 [33] was 8.88 µM and the TGI [33] was greater than 100 µM. For the same molecule, the GI50 [34] was 7.13 µM, the TGI [34] was greater than 100 µM and the GI50 [35] was 3.02 µM. For the same molecule, the TGI [35] was greater than 100 µM, the GI50 [36] was 3.15 µM and the TGI [36] was greater than 100 µM. It also gave a GI50 [37] of 7.71 µM, a TGI [37] greater than 100 µM and a GI50 [38] of 8.71 µM. The TGI [38] was greater than 100 µM, the GI50 [39] was greater than 100 µM and the TGI [39] was greater than 100 µM. The GI50 [40] was 5.66 µM, the TGI [40] was greater than 100 µM and the GI50 [41] was greater than 100 µM. For the same molecule, the TGI [41] was greater than 100 µM, the GI50 [42] was 6.32 µM and the TGI [42] was greater than 100 µM. The GI50 [43] was greater than 100 µM, the TGI [43] was greater than 100 µM and the GI50 [44] was 2.77 µM. For the same molecule, the TGI [44] was greater than 100 µM, the GI50 [45] was 4.12 µM and the TGI [45] was greater than 100 µM. For the same molecule, the GI50 [46] was 77.2 µM, the TGI [46] was greater than 100 µM and the GI50 [47] was 1.61 µM. The TGI [47] was greater than 100 µM, the GI50 [48] was 29.4 µM and the TGI [48] was greater than 100 µM. It also gave a GI50 [49] of 30.8 µM, a TGI [49] greater than 100 µM and a GI50 [50] of 5.29 µM. It also gave a TGI [50] greater than 100 µM, a GI50 [51] of 3.77 µM and a TGI [51] greater than 100 µM.
Work on `COc1c2ccoc2c(/C=C/C=O)c2oc(-c3ccccc3)cc(=O)c12` yielded a GI50 [1] of 26.9 µM, a TGI [1] greater than 100 µM and a GI50 [2] of 7.44 µM. It also gave a TGI [2] of 40.7 µM, a GI50 [3] of 21.5 µM and a TGI [3] greater than 100 µM. The GI50 [4] was 20.8 µM, the TGI [4] was greater than 100 µM and the GI50 [5] was 2.88 µM. The TGI [5] was 13.1 µM, the GI50 [6] was 15.4 µM and the TGI [6] was greater than 100 µM. For the same molecule, the GI50 [8] was 27.7 µM, the TGI [8] was greater than 100 µM and the GI50 [9] was 10.7 µM. It also gave a TGI [9] greater than 100 µM, a GI50 [10] of 16.1 µM and a TGI [10] of 42 µM. The GI50 [11] was 1.7 µM, the TGI [11] was 4.73 µM and the GI50 [12] was 2.52 µM. For the same molecule, the TGI [12] was 9.06 µM, the GI50 [13] was 2.33 µM and the TGI [13] was 5.62 µM. For the same molecule, the GI50 [14] was 2.49 µM, the TGI [14] was 9.48 µM and the GI50 [52] was 11.5 µM. The TGI [52] was greater than 100 µM, the GI50 [15] was 7.2 µM and the TGI [15] was greater than 100 µM. It also gave a GI50 [16] of 25.1 µM, a TGI [16] greater than 100 µM and a GI50 [17] of 17.5 µM. The TGI [17] was greater than 100 µM, the GI50 [18] was 3.21 µM and the TGI [18] was greater than 100 µM. The GI50 [19] was 16.5 µM, the TGI [19] was 43.5 µM and the GI50 [53] was 1.48 µM. It also gave a TGI [53] of 2.8 µM, a GI50 [20] of 3.32 µM and a TGI [20] greater than 100 µM. The GI50 [21] was 3.57 µM, the TGI [21] was 9.17 µM and the GI50 [22] was 2.72 µM. The TGI [22] was 58.3 µM, the GI50 [23] was 4.1 µM and the TGI [23] was greater than 100 µM. For the same molecule, the GI50 [24] was 4.83 µM, the TGI [24] was greater than 100 µM and the GI50 [25] was 2.06 µM. It also gave a TGI [25] of 5.24 µM, a GI50 [26] of 4.14 µM and a TGI [26] of 20.4 µM. For the same molecule, the GI50 [27] was 2.44 µM, the TGI [27] was 8.08 µM and the GI50 [28] was 11.3 µM. It also gave a TGI [28] of 61.4 µM, a GI50 [29] of 17.6 µM and a TGI [29] greater than 100 µM. The GI50 [30] was 3.01 µM, the TGI [30] was greater than 100 µM and the GI50 [31] was 5.19 µM. The TGI [31] was 21.7 µM, the GI50 [32] was 3.2 µM and the TGI [32] was greater than 100 µM. It also gave a GI50 [33] of 22.3 µM, a TGI [33] of 63.7 µM and a GI50 [34] of 2.86 µM. The TGI [34] was greater than 100 µM, the GI50 [35] was 3.23 µM and the TGI [35] was greater than 100 µM. The GI50 [36] was 2.24 µM, the TGI [36] was 5.81 µM and the GI50 [54] was 4.26 µM. For the same molecule, the TGI [54] was 14.7 µM, the GI50 [37] was 4.23 µM and the TGI [37] was greater than 100 µM. For the same molecule, the GI50 [38] was 13.6 µM, the TGI [38] was 97.9 µM and the GI50 [55] was 3.59 µM. For the same molecule, the TGI [55] was 16.4 µM, the GI50 [56] was 10.6 µM and the TGI [56] was greater than 100 µM. The GI50 [39] was 2.73 µM, the TGI [39] was 9.17 µM and the GI50 [40] was 3.04 µM. For the same molecule, the TGI [40] was 12.3 µM, the GI50 [41] was 6.34 µM and the TGI [41] was 42.6 µM. For the same molecule, the GI50 [43] was 12 µM, the TGI [43] was greater than 100 µM and the GI50 [44] was 8.3 µM. The TGI [44] was 67.1 µM, the GI50 [46] was 2.16 µM and the TGI [46] was 5.21 µM. The GI50 [47] was 2.14 µM, the TGI [47] was 6.25 µM and the GI50 [57] was 3.06 µM. For the same molecule, the TGI [57] was 12.9 µM, the GI50 [49] was 11.5 µM and the TGI [49] was 24.2 µM. For the same molecule, the GI50 [50] was 5.45 µM, the TGI [50] was 22.7 µM and the GI50 [51] was 3.62 µM. For the same molecule, the TGI [51] was 35.2 µM.
